Assay results reported in publication PMC5785958, “New role of phenothiazine derivatives as peripherally acting CB1 receptor antagonizing anti-obesity agents” (Scientific Reports, 2018).

What was measured:
[1] = parameters: method as in PMID 20664173; settings: cited from earlier work
[2] = PAMPA-BBB in vitro permeability assay; format: in vitro ADME, porcine; parameters: key to Prediction (penetration in CNS): CNS- indicates low passive CNS permeation; settings: for Prediction (penetration in CNS): from PAMPA-BBB Pe, Pe less than 3.8 × 10^−6 cm s^−1 = low BBB permeation; for Papp at 120 min, 100 µg/ml: pig, PAMPA-BBB, porcine brain lipid, PBS/ethanol (70:30), 25 °C, mean ± SEM of three experiments, read-out: Pe
Experimental: As discussed above, BBB permeation of the available CB1 receptor antagonists limits their therapeutic utility. A successful CB1 receptor antagonist to be used as anti-obesity agent must be devoid of BBB permeability. […] In this study, the ability of the test compounds to cross the BBB was determined by the well established in vitro model PAMPA-BBB assay. This simple and rapid model has the advantage to predict passive BBB permeation with high accuracy[57],[58]. The in vitro permeability (Pe) of the test compounds through the lipid extract of porcine brain was determined in PBS/ethanol (70:30).
To assess the in vivo brain permeability potential of the test compounds, PAMPA assay for BBB was performed as reported by Di. et al.[57]. The donor microplate (polyvinylidene fluoride (PVDF) membrane, diameter 25 mm, pore size 0.45 µm Millipore) and the acceptor microplate were used for the experiment. The acceptor microplate was filled with 200 µl phosphate buffer saline (PBS) and ethanol in the ratio of 70:30 whereas the donor microplate filter surface was impregnated with porcine brain lipid (Avanti Polar Lipids) in dodecane (Sigma) (4 µl of 20 mg/ml). 200 µl of the test compound (100 µg/ml in PBS/ethanol) was added to the donor well. A sandwich was formed by placing the donor plate carefully on the acceptor plate, and the plates were kept undisturbed for 120 min at 25 °C. The donor plate was carefully detached after the incubation period and concentration of the test compound in the acceptor wells was determined using UV spectroscopy. Each sample was analyzed in four wells at five different wavelengths, and at least in three independent runs. Assay validation was performed by using nine commercial quality standard drugs of known BBB permeability[75] in which the reported permeability values of the standards were compared with their experimental permeability values, which gave a linear relationship, Pe(exp.) = 1.171Pe(bibl.) + 1.489 (R^2 = 0.983)[57],[58].

[3] = target: T1, CB1 receptor (Rattus norvegicus, UniProt P20272); assay: In vivo CB1 receptor antagonistic activity against WIN-55212-2 hyperphagia; settings: 24 h fasted rats, test compound 10 mg/kg p.o., WIN-55212-2 2 mg/kg i.p.
T1 construct: from tissue; host or cells: whole living animal (male Wistar rat); receptor endogenous in central and peripheral tissues
T1 sequence (P20272 whole entry): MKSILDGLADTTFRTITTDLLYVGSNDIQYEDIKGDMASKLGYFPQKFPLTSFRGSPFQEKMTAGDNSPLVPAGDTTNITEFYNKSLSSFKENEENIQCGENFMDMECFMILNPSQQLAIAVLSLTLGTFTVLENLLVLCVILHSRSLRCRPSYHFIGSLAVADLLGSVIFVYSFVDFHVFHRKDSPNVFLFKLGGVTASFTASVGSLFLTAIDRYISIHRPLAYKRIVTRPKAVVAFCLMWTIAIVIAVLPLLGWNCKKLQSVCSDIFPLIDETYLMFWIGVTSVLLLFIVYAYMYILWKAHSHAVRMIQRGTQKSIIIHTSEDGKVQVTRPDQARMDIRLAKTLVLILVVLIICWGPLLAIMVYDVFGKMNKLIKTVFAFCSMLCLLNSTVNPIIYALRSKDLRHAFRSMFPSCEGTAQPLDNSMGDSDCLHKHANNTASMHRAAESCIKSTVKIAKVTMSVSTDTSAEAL
Experimental: Here also, the quantity of feed consumed by the control group animals was taken as 100%.
In another set of experiments, in vivo CB1 receptor antagonistic activity of the test compounds was assessed.

[4] = test system: Wistar rats; assay: Acute hypophagic response in 24 h food-deprived rats; format: in vivo, rat; settings: for effect on food intake (in words): 2 h
Experimental: As a preliminary screening, the synthesized compounds were evaluated for acute hypophagia in rats and the results are summarized in Fig. 5. Twenty four hour food deprived Wistar rats were given weighed amounts of food pellets after administration of the test compounds. Quantum of food consumed by the control group of animals was considered as 100%.
Male Wistar rats weighing 200–250 g were used in the present study to assess the acute hypophagic response. Animals were housed individually in a plexi-glass cage in a temperature and humidity controlled room with a 12 h light/dark cycle. Standard chow pellets and water were made available ad libitum. Animals were handled daily for a week before performing the actual experiments. The animal study protocol was approved by the Institutional Animal Ethics Committee (IAEC) of Faculty of Pharmacy, The Maharaja Sayajirao University of Baroda (Approval no. MSU/IAEC/2014-15/1401). The experiments were conducted in accordance to the guidelines of CPCSEA (Committee for the Purpose of Control and Supervision of Experiments on Animals), Ministry of Environment & Forests, Govt. of India. We tried our best to reduce the number of animals and their suffering.
The acute effect of the synthesized test compounds on feeding behavior was assessed in 24 h food-deprived animals. Before performing the experiments, the bedding material was removed from the cage. The animals were deprived of feed for 24 h with free access to water. The fasted animals were administered with the test compounds (10 mg/kg, p.o.). After 30 min of administration, weighed amounts of food pellets were served to the animals. Amount of food pellets and food spillage remaining after 2 h were weighed to find out the amount of food consumed by the animals.

[5] = test system: CB1R; parameters: method as in PMID 20652930; settings: read-out: CB1R antagonist activity EC50; cited from earlier work
[6] = 24 h fasted male Wistar rats, 10 mg/kg p.o.
[7] = 24 h fasted male Wistar rats, 10 mg/kg p.o., food served after 30 min, intake over 2 h, 10 mg/kg

SMILES | brain penetration (in words) [1] | Prediction (penetration in CNS) [2] | Papp at 120 min, 100 µg/ml [2] [×10⁻⁶ cm/s] | effect on hyperphagic effect of WIN-55212-2 (in words) [3] | melting point [°C] | effect on food intake (in words) [4, 6] | food intake (control = 100%) [4, 7] | food intake (control = 100%) ([4]; po, 10 mg/kg) [%] | food intake (control = 100%) ([4]; 24 h fasted male Wistar rats, 10 mg/kg p.o., food served after 30 min, intake over 2 h) | EC50 [5] [nM]
Cc1c(C(=O)NN2CCS(=O)(=O)CC2)nn(-c2ccc(Cl)cc2Cl)c1-c1ccc(C#CCCC#N)cc1 [AM-6545] | limited brain penetration | – | – | – | – | – | – | – | – | –
COc1ccc2c(c1)N(C(=O)CSc1ncc(C#N)c(N)n1)c1ccccc1S2 [Compound 23, 4-Amino-2-(2-(2-methoxy-10H-phenothiazin-10-yl)-2-oxoethylthio)pyrimidine-5-carbonitrile] | – | CNS- | 3.08 ± 0.16 | suppressed the hyperphagic effect of WIN-55212-2 | 215 to 217 | significant hypophagic activity | 19–43% | 19 | – | –
CCOC(=O)c1cnc(SCC(=O)N2c3ccccc3Sc3ccc(C(F)(F)F)cc32)nc1N [Compound 25, Ethyl 4-amino-2-(2-(2-trifluoromethyl-10H-phenothiazin-10-yl)-2-oxoethylthio)-pyrimidine-5-carboxylate] | – | CNS- | 2.72 ± 0.19 | suppressed the hyperphagic effect of WIN-55212-2 | 148 to 151 | significant hypophagic activity | 19–43% | 37 | – | –
CCOC(=O)c1cnc(SCC(=O)N2c3ccccc3Sc3ccc(OC)cc32)nc1N [Compound 27, Ethyl 4-amino-2-(2-(2-methoxy-10H-phenothiazin-10-yl)-2-oxoethylthio)pyrimidine-5-carboxylate] | – | CNS- | 2.8 ± 0.58 | suppressed the hyperphagic effect of WIN-55212-2 | 104 to 106 | significant hypophagic activity | 19–43% | 19 | – | –
Nn1c(SCC(=O)N2c3ccccc3Sc3ccc(Cl)cc32)nnc1-c1ccncc1 [Compound 34, 2-(4-Amino-5-(4-pyridyl)-4H-1,2,4-triazol-3-ylthio)-1-(2-chloro-10H-phenothiazin-10-yl)ethanone] | – | CNS- | 2.09 ± 0.82 | suppressed the hyperphagic effect of WIN-55212-2 | 225 to 227 | significant hypophagic activity | – | – | – | –
CCOC(=O)c1cnc(SCCCN2c3ccccc3Sc3ccc(Cl)cc32)nc1N [Compound 47, Ethyl 4-amino-2-(3-(2-chloro-10H-phenothiazin-10-yl)propylthio)pyrimidine-5-carboxylate] | – | CNS- | 3.28 ± 0.38 | – | 120 to 122 | – | – | – | 62–74% | –
CCc1c(C(=O)NN2CCCCC2)nn(-c2ccc(Cl)cc2Cl)c1-c1ccc(C#Cc2ccc(C(F)(F)F)cc2)s1 [TM38837] | – | – | – | – | – | – | – | – | – | 8.5
